In data set [1] the target is T1, human Muscarinic M1 receptor (Homo sapiens, UniProt P11229).
T1 sequence (P11229 1-460): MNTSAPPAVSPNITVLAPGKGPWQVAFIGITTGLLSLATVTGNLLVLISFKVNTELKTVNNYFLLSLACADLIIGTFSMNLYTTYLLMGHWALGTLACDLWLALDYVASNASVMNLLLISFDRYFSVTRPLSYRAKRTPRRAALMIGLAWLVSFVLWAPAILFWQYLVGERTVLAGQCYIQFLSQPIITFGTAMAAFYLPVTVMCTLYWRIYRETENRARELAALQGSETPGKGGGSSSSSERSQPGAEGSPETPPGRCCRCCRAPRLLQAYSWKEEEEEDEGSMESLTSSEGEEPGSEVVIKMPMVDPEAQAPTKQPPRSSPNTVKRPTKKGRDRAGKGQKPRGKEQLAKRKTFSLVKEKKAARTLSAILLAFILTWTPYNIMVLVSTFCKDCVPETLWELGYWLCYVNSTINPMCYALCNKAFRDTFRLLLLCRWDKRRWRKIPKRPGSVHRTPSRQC
The data set is described as follows: Allosteric potency EC50 for muscarinic M1 receptor, CHO pCRE-Luc reporter cell assay. It counts as cell-based. The following applies: in presence of EC20 of acetylcholine; CHO cells, luciferase reporter, 4 h. The method, then:
A stable CHO cell line expressing recombinant human Muscarinic M1 receptor and pCRE-Luc reporter system was used for cell-based assay. The assay offers a non-radioactive based approach to determine binding of a compound to GPCRs. In this specific assay, the level of intracellular cyclic AMP which is modulated by activation or inhibition of the receptor is measured. The recombinant cells harbor luciferase reporter gene under the control of cAMP response element.
The above cells were grown in 96 well clear bottom white plates in Hams F12 medium containing 10% fetal bovine serum (FBS). Prior to the addition of compounds or standard agonist, cells were serum starved overnight. Increasing concentrations of test compounds were added along with EC20 of acetylcholine in OptiMEM medium to the cells. The incubation was continued at 37° C. in CO2 incubator for 4 h. Medium was removed and cells were washed with phosphate buffered saline. The cells were lysed and luciferase activity was measured in a Luminometer. Luminescence units were plotted against the compound concentrations using Graphpad software. EC50 values of the compounds were defined as the concentration required in stimulating the luciferase activity by 50% in presence of EC20 of acetylcholine.
Background: A reporter such as luciferase makes a cellular process visible.

A short description of data set [2]: Rodent brain penetration study. The settings on record: male, Wistar, brain/plasma, po; rat, 3 mg/kg, p.o. @ 1.0 hr; read-out: Single dose Rat Brain Penetration (Cb/Cp). It is filed as in vivo, Male Wistar rats. How it is done: Male Wistar rats (260±40 grams) were used as experimental animals. Three animals were housed in each cage. Animals were given water and food ad libitum throughout the experiment and maintained on a 12 h light/dark cycle.
Brain penetration was determined in discrete manner in rats. One day prior to dosing day, male Wistar rats were acclimatized and randomly grouped according to their weight. At each time point (0.5, 1 and 2 h) n=3 animals were used.
The test compounds were suitably preformulated and administered orally at (free base equivalent) 3 mg/kg. Blood samples were removed via cardiac puncture by using isoflurane anesthesia. The animals were sacrificed to collect brain tissue. Plasma was separated and brain samples were homogenized and stored frozen at −20° C. until analysis. The concentrations of the test compounds in plasma and brain were determined using LC-MS/MS method.
The test compounds were quantified in plasma and brain homogenate by qualified LC-MS/MS method using suitable extraction technique. The test compounds were quantified in the calibration range of 1-500 ng/mL in plasma and brain homogenate. Study samples were analyzed using calibration samples in the batch and quality control samples spread across the batch.

The nature of data set [3]: Protein binding assay (HT dialysis), dog plasma. It counts as in vitro ADME. The following applies: pH 7.4, Mean ± SEM, n = 3, read-out: Fu Plasma (converted). How it is done: (§1) Unbound fractions of test compounds in plasma, brain homogenate and liver microsomes were determined using high-throughput dialysis (HT dialysis). Briefly, dialysis membranes were soaked in deionized water for 20 minutes and then in deionized water with 30% ethanol for 15 minutes and finally in phosphate buffer until use. Membranes were rinsed in phosphate buffer before assembling. The membranes were layered between teflon bars of dialysis assembly. Stock solutions of test compound/comparative compound were prepared at 10 mM in DMSO, diluted to 1 mM in acetonitrile and further diluted to 100 μM in mixture of water and acetonitrile (1:1 v/v). Human plasma (pool of 3) was prepared from human blood (3 donors) by centrifuging at 4000 rpm for 10 min at 4° C. Rat and dog blood were obtained on the day of the study and centrifuged to obtain plasma. Rat brains were isolated, cleaned and homogenized with 2 volumes of buffer (3 fold dilution). Liver microsomes were prepared at 0.5 mg/mL in phosphate buffer (100 mM, pH 7.4). The dialysate chambers were loaded with 150 μL of 100 mM phosphate buffer (pH 7.4) in triplicates. The matrix chambers were loaded with 150 μL of the plasma or brain homogenate or microsomal suspension spiked with test compound/comparative compound at a final concentration of 1 μM. 50 μL of the sample was removed from both the chambers at 0 h. The plate was sealed and incubated at 37° C. for 6 h at 100 rpm. After 6 h, 50 μL of the sample was removed from both the chambers. Equal volumes of buffer or human plasma/microsomal suspension were added to the plasma/microsomal and buffer samples respectively to create identical sample matrices for analysis. The samples were precipitated with 150 μL of acetonitrile containing fluoxetine as an internal standard. All the samples were centrifuged at 10000 rpm for 10 minutes at 4° C.

Data set [4] can be described thus: Protein binding assay (HT dialysis), human plasma. It is filed as in vitro ADME. The settings on record: pH 7.4, Mean ± SEM, n = 3, read-out: Fu Plasma (converted). How it is done:
as §1

The nature of data set [5]: Protein binding assay (HT dialysis), rat liver microsomes. It counts as in vitro ADME. The settings on record: pH 7.4, Rat liver microsomes 0.5 mg/mL, Mean ± SEM, n = 3, read-out: Fu Microsomes. How it is done:
as §1
(In general: Liver microsomes are a subcellular fraction often used to study metabolism.)

The nature of data set [6]: Protein binding assay (HT dialysis), human liver microsomes. The settings on record: pH 7.4, Human liver microsomes 0.5 mg/mL, Mean ± SEM, n = 3, read-out: Fu Microsomes (converted). It counts as in vitro ADME. How it is done:
as §1

For data set [7], the system named is hippocampal theta oscillations. In words: Theta modulation in dorsal hippocampus of anesthetized rats in combination with donepezil. It is filed as in vivo, Male Wistar rats. The settings on record: in combination with donepezil (0.3 mg/kg, i.v.), test compound 1 mg/kg.
Source text: Male Wistar rats (240-320 g) were anesthetized by intraperitoneal administration of urethane (1.2 to 1.5 g/kg) for implantation of a catheter in the left femoral vein. The animal was placed in a stereotaxic frame for implanting an electrode (stainless steel wire, Plastics One) into the dorsal hippocampus (AP: 3.8 mm; ML: +2.2 mm; DV: 2.5 mm; Paxinos and Watson, 2004). Bipolar stimulating electrode (untwisted stainless steel wires, separated by 0.75-1.0 mm at their tips, Plastics One) was implanted in the Nucleus Pontis Oralis (NPO; AP: 7.8 mm; ML: 1.8 mm; DV: 6.0 mm; Paxinos and Watson, 2004). Additionally one electrode was implanted into the cerebellum which served as a reference. Hippocampal θ rhythm was evoked via a 6-s electrical stimulation train (20-160 μA, 0.3-ms pulse duration, 250 Hz) delivered to the NPO at a rate of 0.01 trains/s with a Grass S88 stimulator and PSIU6 stimulus isolation unit (Grass Medical Instruments, Quincy, MA). EEG was recorded at a rate of 1000 Hz using Ponemah (Version 5.2) software and stored for off-line analysis using NeuroScore (Version 3.0). […]
Power in the θ rhythm frequency in the stimulation period during the 30-min baseline period was calculated and the % changes in these measures post treatment were calculated. […]

As usually defined, the EC50 is the concentration at which the effect is half-maximal. As to `COc1cccc(Cc2cc3c(nc2C)CN([C@H]2CCCC[C@@H]2O)C3=O)c1` [Example 38, 6-(1S,2S-2-Hydroxycyclohexyl)-2-methyl-3-(3-methoxybenzyl)-6,7-dihydropyrrolo[3,4-b]pyridin-5-one], the EC50 in data set [1] came to 2280 nM. Besides, the Kp at 1 h in data set [2] was found to be 0.45 ± 0.13. Also, the fraction unbound at 6 h, 1 μM in data set [3] is 0.116; in data set [4] it was 0.192; in data set [5], 0.826 ± 0.03; in data set [6], 0.87. In addition, the “effect of combination treatment on θ power compared with donepezil alone” value in data set [7] (FIG. 1) is listed as “significantly higher than the donepezil alone”. The θ power levels result in data set [7] (anesthetized rat) is on record as “significant increase”.

As for `COc1ccc(Cc2cc3c(nc2C)CN([C@H]2CCCC[C@@H]2O)C3=O)cc1` [Example 6, 6-(1S,2S-2-Hydroxycyclohexyl)-2-methyl-3-(4-methoxybenzyl)-6,7-dihydropyrrolo[3,4-b]pyridin-5-one], the concentration for a half-maximal effect (EC50) in data set [1] was 954 nM. Moreover, in data set [2], the Kp at 1 h was 0.35 ± 0.08. Moreover, the fraction unbound at 6 h, 1 μM in data set [3] is 0.115; in data set [4], 0.124; in data set [5], 0.798 ± 0.12; in data set [6], 0.938.
